Assay [1] relates to primary rat dopaminergic neurons (TH positive neurons) injured with MPP+. Nature of the assay: Neuroprotective effect following exposure to MPP+. It counts as cell-based. The protocol: This study investigated the neuroprotective effect of the Compound CR777 of example 1 on rat primary mesencephalic cultures following exposure to 1-methyl-4-phenyl pyridinium (MPP^+).
Rat dopaminergic neurons were cultured as described by Visanji et al., 2008 FASEB J. 2008; 22(7):2488-97. Briefly, the midbrains obtained from 15-day old rat embryos (Janvier Labs, France) were dissected under a microscope. The embryonic midbrains were removed and placed in ice-cold medium of Leibovitz (L15, Batch 4290114, Pan Biotech, Germany) containing 2% of Penicillin-Streptomycin (PS, Batch 1451013, Pan Biotech) and 1% of bovine serum albumin (BSA, Batch K030913, Pan Biotech). The ventral portion of the mesencephalic flexure, a region of the developing brain rich in dopaminergic neurons, was used for the cell preparations.
The midbrains were dissociated by trypsinisation for 20 min at 37° C. […] The cells were seeded in supplemented neurobasal medium at a density of 40 000 cells/well in 96 well-plates pre-coated with poly-L-lysine (Batch 3102256, Corning Biocoat) and maintained in a humidified incubator at 37° C. in 5% CO2/95% air atmosphere. Half of the medium was changed every 2 days with fresh medium.
On day 6 of culture, the medium was removed and fresh medium was added, without or with MPP+ at 4 μM diluted in control medium and let for 48 h. […]
The following conditions were assessed: (6 wells per condition) • Control (vehicle) • Compound CR777 of example 1 (1 pmol/L) • Compound CR777 of example 1 (10 pmol/L) • Compound CR777 of example 1 (100 pmol/L) • Compound CR777 of example 1 (1 nmol/L) • Compound CR777 of example 1 (10 nmol/L) • Compound CR777 of example 1 (100 nmol/L) • Compound CR777 of example 1 (1 μmol/L) • Compound CR777 of example 1 (10 μmol/L) […]
Data were expressed in percentage of control conditions (no injury, no compound=100%). All values were expressed as mean+/−SEM (standard error mean) of the 6 wells with statistical analyses on the different conditions (ANOVA followed by Dunnett's test when allowed, using GraphPad Prism software).

Assay [2] deals with primary rat motor neurons injured with glutamate. Nature of the assay: Primary motor neuron culture survival after glutamate exposure (in vitro ALS model). The class given is cell-based. To be noted: CR777 between 1 nM and 10 nM, added 1 h before glutamate (5 μM, 20 min, then 48 h). The method, then: The aim of this study was to study the effect of CR777 on primary motor neuron culture from rat spinal cord (SC) injured by glutamate exposure (a well validated in vitro ALS model and model of motor neuron diseases).
Rat SC motor neurons were cultured as described by Martinou et al., Neuron. 1992 April; 8(4):737-44 and Wang et al., Hum Mol Genet. 2013 Dec. 1; 22(23):4706-19. Briefly, pregnant female rats (Wistar, Janvier labs) of 14 days gestation were killed by cervical dislocation. […] Cells were then centrifuged at 180 g for 10 min at +4° C. on a layer of BSA (3.5%) in L15 medium. […] The medium was changed every day.
The following conditions were assessed: • Control • + glutamate (5 μM 20 mn then 48 h) • + glutamate (5 μM 20 mn then 48 h)+CR777 1 pmol/L • + glutamate (5 μM 20 mn then 48 h)+CR777 10 pmol/L • + glutamate (5 μM 20 mn then 48 h)+CR777 100 pmol/L • + glutamate (5 μM 20 mn then 48 h)+CR777 1 nmol/L • + glutamate (5 μM 20 mn then 48 h)+CR777 10 nmol/L • + glutamate (5 μM 20 mn then 48 h)+CR777 100 nmol/L • + glutamate (5 μM 20 mn then 48 h)+CR777 1 μmol/L • + glutamate (5 μM 20 mn then 48 h)+CR777 10 μmol/L […]
For each condition, 6 wells were assessed, 30 pictures per well were taken using ImageXpress (Molecular Devices) with 20× magnification, to assess motor neuron survival (MAP-2). […]

Regarding `CC1=C(CO)C(=O)O[C@@H]([C@@H](C)[C@H]2CCC3C4C[C@H](SC[C@H](NC(=O)CC[C@@H](N)C(=O)O)C(=O)NCC(=O)O)[C@]5(O)[C@@H](O)C=CC(=O)[C@]5(C)C4CC[C@@]32C)C1` (stereo partly drawn) [CR777], the “TH positive neuron survival” value in assay [1] (added 1 h before MPP+ (4 μM, 48 h), all concentrations 1 pmol/L to 10 μmol/L, more particularly 10 to 100 nmol/L) is recorded as “significantly protected neurons from death”. The “neuro-protective effect on MPP+ induced injuries” value in assay [1] (concentrations between 10 and 100 nmol/L, MPP+ 4 μM, 48 h) is “important and significantly neuro-protective effect”. Also, the motor neuron survival result in assay [2] is “moderate and significant protective effect”.

Source of the values: patent US11634452B2, “Compounds for treating neurodegenerative disorders” (ETHNODYNE, priority 2017, dated 2023).
